Assay [1] deals with T1, Human Recombinant Matriptase 2 (Homo sapiens, UniProt Q8IU80).
T1 construct: purchased Enzo Life Sciences (an in-house preparation was also used) ALX-201-752-1
T1 sequence (Q8IU80 1-811): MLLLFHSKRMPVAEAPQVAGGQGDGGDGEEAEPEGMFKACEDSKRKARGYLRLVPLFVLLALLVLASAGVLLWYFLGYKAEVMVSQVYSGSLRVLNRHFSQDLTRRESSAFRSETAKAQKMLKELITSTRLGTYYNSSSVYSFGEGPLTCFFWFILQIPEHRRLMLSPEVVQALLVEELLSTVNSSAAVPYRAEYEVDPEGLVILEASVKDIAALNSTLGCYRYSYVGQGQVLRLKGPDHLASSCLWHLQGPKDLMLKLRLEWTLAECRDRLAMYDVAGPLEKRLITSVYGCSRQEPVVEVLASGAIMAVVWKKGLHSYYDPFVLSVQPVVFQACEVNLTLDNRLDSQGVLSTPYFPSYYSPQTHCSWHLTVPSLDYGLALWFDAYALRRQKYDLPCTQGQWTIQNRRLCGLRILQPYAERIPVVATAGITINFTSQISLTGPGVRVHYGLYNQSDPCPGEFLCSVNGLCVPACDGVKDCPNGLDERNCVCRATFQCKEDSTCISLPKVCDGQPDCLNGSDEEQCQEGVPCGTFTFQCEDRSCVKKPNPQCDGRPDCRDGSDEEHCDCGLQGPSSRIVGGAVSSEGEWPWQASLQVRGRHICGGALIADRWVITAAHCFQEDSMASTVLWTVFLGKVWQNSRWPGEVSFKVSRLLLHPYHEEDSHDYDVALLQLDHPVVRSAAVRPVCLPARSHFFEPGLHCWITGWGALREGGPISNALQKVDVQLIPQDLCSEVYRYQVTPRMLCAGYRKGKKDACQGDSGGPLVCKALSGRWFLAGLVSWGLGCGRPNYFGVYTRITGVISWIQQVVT
Briefly: Matriptase 2 fluorescence based inhibition assay, Method A (100 mM TRIS pH 9, 1 mg/mL BSA). Format: biochemical. The conditions noted are these: 1 uM; Assay Used A; read-out: Mar-2 % inhibition at 1 uM. The method, then:
Test compounds were evaluated for their potential to inhibit Human Recombinant Matriptase 2 (in-house and commercial protein from Enzo Life Sciences—cat log -ALX-201-752-1) using fluorescence based assay. The concentration of Recombinant Matriptase 2 and the substrate used in the assay was: 7 nM (commercial) and 15 nM (Inhouse Matriptase 2) and 100 μM (Boc-Gln-Ala-Arg-7-amido-4-methyl coumarin hydrobromide—Cat log: B4153-Sigma) respectively. The assay buffer used was 100 mM TRIS pH 9, 1 mg/mL BSA. The assay was performed using 384 well black flat bottom plate from grenier (Cat log: 781076) at 25° C. The enzyme and compound was preincubated for 30 mins, plate was read 60 mins after substrate addition at wavelength Ex: 360/Em: 480 nm. The final assay volume was 20 μl. Stock solution of compounds were initially prepared in DMSO and appropriate dilutions were made for screening and IC50 determination (final DMSO conc in the assay was 1%). All the measurements were carried out using the Spectramax M5, Molecular devices. The compounds were screened at 1 and 10 μM concentration and IC50 was determined for the interested compounds.
To determine IC50 values, dose response curves were generated by plotting percentage inhibition as a function of inhibitor concentration and the data was fitted to sigmoidal non-linear regression equation (variable slope) using Graph Pad prism software V7.

Assay [2] deals with T1, Human Recombinant Matriptase 2. Briefly: Matriptase 2 fluorescence based inhibition assay, Method B (50 mM TRIS pH 7.5, 150 mM NaCl, 0.01% gelatin). Format: biochemical. The conditions noted are these: compound at 1 uM; Assay Used: B; read-out: Mar-2 % inhibition at 1 uM. In outline:
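Commercial (7 nM) or in-house (15 nM) enzyme preincubated 30 min with compound at 25° C, then 100 μM Boc-Gln-Ala-Arg-AMC added; fluorescence (Ex 360/Em 480 nm) read at 60 min. 1% DMSO final. IC50 from variable-slope sigmoidal fit of % inhibition.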

The values that follow come from patent publication US12428415B2, “Matriptase 2 inhibitors and uses thereof” (Disc Medicine, Inc., priority 2018, dated 2025).

For orientation: inhibition means how much of the control response was suppressed. As for `N=C(N)c1ccc2cc(C(=O)Nc3ccc(N)nc3)n(Cc3ccc(C(F)(F)F)cc3)c2c1` [Compound I-1, N-(6-aminopyridin-3-yl)-6-carbamimidoyl-1-(4-(trifluoromethyl)benzyl)-1H-indole-2-carboxamide], in assay [1], the inhibition at 1 µM was 0 to 25%.
On to `N=C(N)c1ccc2cc(C(=O)N[C@H]3CC[C@H](N)CC3)n(Cc3ccc(C(F)(F)F)cc3)c2c1` [Compound I-4], for which the inhibition at 1 µM in assay [1] is 25 to 50%.
The same measure, in the same setting: as for `N=C(N)c1ccc2cc(C(=O)NC3CCNCC3)n(Cc3ccc(C(F)(F)F)cc3)c2c1` [Compound I-5], the figure is 25 to 50%.
The same measure, in the same setting: to `N=C(N)c1ccc2cc(C(=O)NC3CCN(CCCN)CC3)n(Cc3ccc(C(F)(F)F)cc3)c2c1` [Compound I-6, N-(1-(3-Aminopropyl)piperidin-4-yl)-6-carbamimidoyl-1-(4-(trifluoromethyl)benzyl)-1H indole-2-carboxamide] belongs 25 to 50%; to `N=C(N)c1ccc2cc(C(=O)NC3CCN(C(=O)CCN)CC3)n(Cc3ccc(C(F)(F)F)cc3)c2c1` [Compound I-8, N-(1-(3-aminopropanoyl)piperidin-4-yl)-6-carbamimidoyl-1-(4-(trifluoromethyl)benzyl)-1H-indole-2-carboxamide], 25 to 50%; to `N=C(N)c1ccc2cc(C(=O)N[C@H]3CC[C@H](NC(=O)c4ccccn4)CC3)n(Cc3ccc(C(F)(F)F)cc3)c2c1` [Compound I-9, 6-carbamimidoyl-N-((1r,4r)-4-(picolinamido)cyclohexyl)-1-(4-(trifluoromethyl)benzyl)-1H-indole-2-carboxamide], 25 to 50%.
Still for that read-out and setting: to `N=C(N)c1ccc2cc(C(=O)NCC3CCCCC3)n(Cc3ccc(C(F)(F)F)cc3)c2c1` [Compound I-10] belongs 25 to 50%; to `N=C(N)c1ccc2cc(C(=O)NC3CCC(N)CC3)n(Cc3ccc(OC(F)(F)F)cc3)c2c1` (centres unmarked) [Compound I-11], 25 to 50%; to `N=C(N)c1ccc2cc(C(=O)NCC3CCCCC3)n(Cc3ccc(OC(F)(F)F)cc3)c2c1` [Compound I-12], 0 to 25%.
Consider `CSc1ccc(Cn2c(C(=O)NC3CCC(N)CC3)cc3ccc(C(=N)N)cc32)cc1` (centres unmarked) [Compound I-13], for which the inhibition at 1 µM in assay [1] fell in the range of 50 to 75%.
As to `CC(C)c1ccc(Cn2c(C(=O)N[C@H]3CC=CCC3)cc3ccc(C(=N)N)cc32)cc1` [Compound I-14], the inhibition at 1 µM in assay [1] is 0 to 25%.
The same measure, in the same setting: to `CC(C)c1ccc(Cn2c(C(=O)NC3CCC(F)(F)CC3)cc3ccc(C(=N)N)cc32)cc1` [Compound I-15] belongs 0 to 25%.
For `CC(C)c1ccc(Cn2c(C(=O)NCC3CCCCC3)cc3ccc(C(=N)N)cc32)cc1` [Compound I-16], the inhibition at 1 µM in assay [1] was in the range of 0 to 25%.
Same read-out and setting: to `CC(C)(C)c1ccc(Cn2c(C(=O)NC3CCC(N)CC3)cc3ccc(C(=N)N)cc32)cc1` (centres unmarked) [Compound I-17] belongs 50 to 75%; to `N=C(N)c1ccc2cc(C(=O)N[C@H]3CC[C@H](N)CC3)n(Cc3cccnc3)c2c1` [Compound I-18], 25 to 50%; to `N=C(N)c1ccc2cc(C(=O)N[C@H]3CC[C@H](N)CC3)n(Cc3ccncc3)c2c1` [Compound I-19], 25 to 50%.
For `N=C(N)c1ccc2cc(C(=O)N[C@H]3CC[C@H](N)CC3)n(Cc3ccc(C(=O)O)cc3)c2c1` [Compound I-20, 4-((2-(((1r,4r)-4-aminocyclohexyl)carbamoyl)-6-carbamimidoyl-1H-indol-1-yl)methyl)benzoic Acid], the inhibition at 1 µM in assay [1] is 25 to 50%.
On the same count and under the same terms, as for `COC(=O)c1ccc(Cn2c(C(=O)N[C@H]3CC[C@H](N)CC3)cc3ccc(C(=N)N)cc32)cc1` [Compound I-21, Methyl 4-((2-(((1r,4r)-4-aminocyclohexyl)carbamoyl)-6-carbamimidoyl-1H-indol-1-yl)methyl)-benzoate], the figure is 50 to 75%; as for `CCOC(=O)c1ccc(Cn2c(C(=O)N[C@H]3CC[C@H](N)CC3)cc3ccc(C(=N)N)cc32)cc1` [Compound I-22, Ethyl 4-((2-(((1r,4r)-4-aminocyclohexyl)carbamoyl)-6-carbamimidoyl-1H-indol-1-yl)methyl)-benzoate], 25 to 50%.
In the case of `N=C(N)c1ccc2cc(C(=O)NCc3cccc(CN)c3)n(CCc3ccccc3)c2c1` [Compound I-24], the inhibition at 1 µM in assay [1] is 0 to 25%.
With `N=C(N)c1ccc2cc(C(=O)Nc3ccc(C(N)=O)cc3)n(CCc3ccccc3)c2c1` [Compound I-25], the inhibition at 1 µM in assay [1] lay within 0 to 25%.
For `N=C(N)c1ccc2cc(C(=O)Nc3cccc(C(N)=O)c3)n(CCc3ccccc3)c2c1` [Compound I-26], the inhibition at 1 µM in assay [1] lay in the range of 0 to 25%.
Same read-out and setting: as for `N=C(N)c1ccc2cc(C(=O)N[C@H]3CC[C@H](N)CC3)n(CCc3ccccc3)c2c1` [Compound I-27], the figure is 50 to 75%; as for `N=C(N)c1ccc2cc(C(=O)NC3CCN(CCN)CC3)n(CCc3ccccc3)c2c1` [Compound I-28, N-(1-(2-Aminoethyl)piperidin-4-yl)-6-carbamimidoyl-1-phenethyl-1H-indole-2-carboxamide], 25 to 50%.
On the same count and under the same terms, to `N=C(N)c1ccc2cc(C(=O)N[C@H]3CC[C@H](N)CC3)n(CCc3ccc(F)cc3)c2c1` [Compound I-30] belongs 25 to 50%.
For `N=C(N)c1ccc2cc(C(=O)N[C@H]3CC[C@H](N)CC3)n(Cc3cccc4sc(C(=O)O)cc34)c2c1` [Compound I-815, 4-((2-(((1r,4r)-4-aminocyclohexyl)carbamoyl)-6-carbamimidoyl-1H-indol-1-yl)methyl) benzo[b]thiophene-2-carboxylic Acid], the inhibition at 1 µM in assay [2] was 50 to 75%.
On to `N=C(N)c1ccc2cc(C(=O)NC3CCNC[C@@H]3F)n(Cc3cccc4ccccc34)c2c1` (some centres unmarked) [Compound I-816], for which the inhibition at 1 µM in assay [2] lay in the range of 75 to 100%.
The same measure, in the same setting: as for `N=C(N)c1ccc2cc(C(=O)N[C@H]3CC[C@H](N)CC3)n(CCCc3cccc4ccccc34)c2c1` [Compound I-817], the figure is 0 to 25%.
Still for that read-out and setting: as for `N=C(N)c1ccc2cc(C(=O)N[C@H]3CC[C@H](N)CC3)n(Cc3cccc4ccsc34)c2c1` [Compound I-818], the figure is 50 to 75%.
Same read-out and setting: to `N=C(N)c1ccc2cc(C(=O)N[C@H]3CC[C@H](N)CC3)n(Cc3cc(Br)cc4ccccc34)c2c1` [Compound I-819] belongs 75 to 100%; to `Cc1cccc2sc(Cn3c(C(=O)N[C@H]4CC[C@H](N)CC4)cc4ccc(C(=N)N)cc43)cc12` [Compound I-820], 25 to 50%; to `N=C(N)c1ccc2cc(C(=O)O)n(Cc3cccc4cc(O)ccc34)c2c1` [Compound I-821], 75 to 100%.
As to `COC(=O)c1cc2c(Cn3c(C(=O)N[C@H]4CC[C@H](N)CC4)cc4ccc(C(=N)N)cc43)cccc2s1` [Compound I-822], the inhibition at 1 µM in assay [2] is 50 to 75%.
The same measure, in the same setting: as for `N=C(N)c1ccc2cc(C(=O)N[C@H]3CC[C@H](N)CC3)n(Cc3cccc4sccc34)c2c1` [Compound I-823], the figure is 50 to 75%; as for `N=C(N)c1ccc2cc(C(=O)N[C@H]3CC[C@H](N)CC3)n(Cc3ccc(CO)c4ccccc34)c2c1` [Compound I-824], 75 to 100%.
Consider `COC(=O)c1ccc(Cn2c(C(=O)N[C@H]3CC[C@H](N)CC3)cc3ccc(C(=N)N)cc32)c2ccccc12` [Compound I-825], for which, in assay [2], the inhibition at 1 µM lay in the range of 75 to 100%.
For the compound `N=C(N)c1ccc2cc(C(=O)NCCc3c[nH]c4ccc(O)cc34)n(Cc3cc(Oc4ncccn4)cc4ccccc34)c2c1` [Compound I-826], the inhibition at 1 µM in assay [2] lay within 25 to 50%.
Same read-out and setting: to `N=C(NN)c1ccc2cc(C(=O)N[C@H]3CC[C@H](N)CC3)n(Cc3cccc4ccccc34)c2c1` [Compound I-827, N-((1r,4r)-4-aminocyclohexyl)-6-(hydrazineyl(imino)methyl)-1-(naphthalen-1-ylmethyl)-1H-indole-2-carboxamide] belongs 25 to 50%.
